Experimental data from US10738061B2, “Inhibitors of RAD52 recombination protein and methods using same” (Drexel University, priority 2015, dated 2020).

Legend:
RAD52 [1] = target: T1, RAD52 (Homo sapiens, UniProt P43351); assay: D-loop formation (DNA pairing) by RAD52; format: biochemical; details: three independent repeats, read-out: Inhibition of DNA pairing (D-loop formation), IC50
T1 construct: made in house
T1 sequence (P43351 1-418): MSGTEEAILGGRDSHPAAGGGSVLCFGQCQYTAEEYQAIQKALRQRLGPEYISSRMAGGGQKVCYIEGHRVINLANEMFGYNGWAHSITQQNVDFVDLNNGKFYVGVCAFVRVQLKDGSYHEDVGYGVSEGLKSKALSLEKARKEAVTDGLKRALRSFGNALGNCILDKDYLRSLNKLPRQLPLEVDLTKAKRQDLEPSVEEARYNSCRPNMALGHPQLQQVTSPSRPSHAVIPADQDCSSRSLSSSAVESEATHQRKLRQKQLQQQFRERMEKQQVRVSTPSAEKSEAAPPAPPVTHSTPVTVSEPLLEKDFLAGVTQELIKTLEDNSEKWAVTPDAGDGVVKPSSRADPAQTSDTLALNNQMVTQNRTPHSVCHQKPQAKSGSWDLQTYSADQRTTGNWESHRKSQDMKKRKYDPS
Experimental: Cisplatin was purchased from Sigma-Aldrich. Human RAD52 and RAD51 were purified as described (Bugreev et al., 2005, Mol. Cell. Biol. 33, 387-395). The oligonucleotides (Table 2) were purchased from IDT, Inc and further purified by electrophoresis (Rossi et al., 2010, Methods 51, 336-346). Supercoiled pUC19 plasmid DNA was purified using Qiagen kits. All DNA concentrations are expressed as moles of nucleotide.
To form RAD52 nucleoprotein complexes, RAD52 (0.45 μM) was incubated with a ^32P-labeled ssDNA (oligo 90/SEQ ID NO: 4) (3 μM, nt) in buffer containing 25 mM Tris-Acetate, pH 7.5, 100 μg·ml-1 BSA, 0.3 mM magnesium acetate, and 2 mM DTT at 37° C. for 15 min. To form RAD51 nucleoprotein filament, RAD51 (1 μM) was incubated with ^32P-labeled ssDNA (3 μM, nt) in buffer containing 25 mM Tris-Acetate, pH 7.5, 100 μg·ml-1 BSA, 1 mM calcium chloride, 1 mM ATP and 2 mM DTT for 15 min at 37° C. Then inhibitors were added to both reactions and incubation continued for 15 min at 37° C. D-Loop formation was initiated by addition of supercoiled pUC19 DNA (50 μM, nucleotides) and was carried out 15 min at 37° C. The reactions were stopped and deproteinized by the addition of 1.5% SDS and proteinase K (0.8 mg/ml) for 15 min at 37° C., mixed with a 0.10 volume of loading buffer (70% glycerol, 0.1% bromphenol blue), and analyzed by electrophoresis in 1% agarose gels in TAE buffer (40 mM Tris acetate, pH 8.3, and 1 mM EDTA) at 5 V/cm for 3 h. The gels were dried on DEAE-81 paper (Whatman) and the yield of D-loops quantified using a Storm 840 PhosphorImager and ImageQuant 5.2 (GE Healthcare). The D-loop yield was expressed as a percentage of plasmid DNA carrying D-loops relative to the total plasmid DNA.
IC50 values were calculated using GraphPad Prism V5.0 software. The data were obtained from three independent repeats of experiments.
The inhibitory effect of the 70 selected compounds were tested using the D-loop assay, in which RAD52 promotes pairing between 32P-labeled ssDNA and homologous supercoiled plasmid pUC19 DNA (FIG. 1D); the product of the reaction, D-loops, were analyzed by electrophoresis in 1% agarose gels. […] Then, the effects of each of the 17 compounds on RAD52-dependent D-loop formation were measured in a concentration dependent manner.

RAD52 [2] = target: T1, RAD52; assay: Fluorescence-quenching assay for RAD52 ssDNA annealing (HTS); format: biochemical
Experimental: Tailed dsDNA substrate was prepared by thermal annealing of ssDNA oligonucleotides 337-F and 1337-BHQ1 (SEQ ID NO: 2) containing Fluorescein and Black Hole Quencher 1 residues at the 5′ and 3′ end, respectively. […] The fluorescence intensity was measured in a 3-mm quartz cuvette (Starna Cells) using a FluoroMax-3 (HORIBA) fluorimeter with 492 nm excitation wavelength and 520 nm emission wavelength at 30° C. for at least 2000 s.
The HTS was performed using the 8 channel BioRAPTR 1536 (Beckman) for reagent dispensing. […] Wells containing no RAD52 enzyme were used to as positive control, and data were analyzed using Genedata.
A fluorescence-quenching assay was used to screen for inhibitors of RAD52 ssDNA annealing activity (FIGS. 1A-1E). […] Annealing promoted by RAD52 between ssDNA and tdsDNA led to displacement of the FLU-carrying DNA strand from the tdsDNA and in an increase in fluorescence due to secession of fluorescence quenching by the BHQ1 group (FIG. 1B).
The fluorescence-quenching assay was optimized for 1,536 well plates (Z′ Avg=0,64). […] The hits were further analyzed for a concentration dependence in inhibiting of RAD52 and by testing their DNA binding affinity using the acridine orange assay.

[3] = tested on: BRCA1/2-deficient cell lines; assay: Growth of BRCA1/2-deficient cell lines (summary over tested lines); format: cell-based, Human
Experimental: (§1) BxPC3 cells were kept in RPMI 1640 (ATCC) media supplemented with 10% FBS (Gibco). Capan-1/BxPC3 Capan-1 cells were kept in IMDM (ATCC) media containing 20% FBS (GIBCO). […] cells were kept in 48.5% RPMI1640 (ATCC), 48.5% MEGM (Clonetics/Lonza, MEGM kit, CC-3150) and 3% FBS (GIBCO) respectively. Cells in log-phase were harvested and 100 μl cell suspensions were replated in a 96-well plate with a final density of 4000 cells/well. After overnight growth, cells were treated with indicated concentrations of compounds. Media containing the invariant concentration of compounds were refreshed every 3 days until cells were finally lysed by 30 μl/well of Promega CellTiter-Glo reagents and read on a Promega GloMax 96 reader on day 10 (9 days exposure).
as §1, with “(Gibco);” for “(Gibco). Capan-1/BxPC3”, “(GIBCO);” for “(GIBCO).”, “exposure). Promega CellTiter-Glo protocol is available on the web: www dot promega dot com/resources/protocols/technical-bulletins/0/celltiter-glo-luminescent-cell-viability-assay-protocol/” for “exposure).”
MDA-MB-436 cells were cultured in RPMI+10% FBS. BRCA-proficient and BRCA-deficient cells were plated on day 0 in triplicate at 5,000 cells/well. […] Cells were counted on day 4 on a hemocytometer, using Trypan Blue exclusion, and immediately were plated in a clonogenic assay at a density of 500 cells/well in a 6 well plate, in RPMI+10% FBS. […]

[4] = tested on: MDA-MB-436 (BRCA1-) and MDA-MB-436 (BRCA1+) cells; assay: Clonogenic survival assay; format: cell-based, Human
Experimental: MDA-MB-436 cells were cultured in RPMI+10% FBS. BRCA-proficient and BRCA-deficient cells were plated on day 0 in triplicate at 5,000 cells/well. […] Cells were counted on day 4 on a hemocytometer, using Trypan Blue exclusion, and immediately were plated in a clonogenic assay at a density of 500 cells/well in a 6 well plate, in RPMI+10% FBS. After two weeks, the colonies were fixed/stained with 0.05% of 10 mg/ml ethidium bromide in 50% ethanol and visualized with Alphaimager gel imager (Alpha Innotech).
Likewise, the effects of RAD52 inhibitors on the growth of BRCA1-deficient (UWB1.289 BRCA1^−) and BRCA1-proficient (UWB1.289 BRCA^+) cells were tested. 7 out 14 tested RAD52 inhibitors preferentially suppress the growth of BRCA1-deficient cells. Importantly, these 7 compounds included the 5 compounds that inhibited the growth of BRCA2-deficient cells (FIGS. 3E-3H). The effects of the 14 RAD52 inhibitors were tested on the survival of another BRCA1-deficient cells, and MDA-MB-436 cells. […] BRCA1-deficiency in these cells is due to constitutive downregulation of this protein.

[5] = tested on: UWB1.289 (BRCA1-) and UWB1.289 (+BRCA1) cells; assay: Luminescent cell viability assay, BRCA1-deficient versus proficient cells; format: cell-based, Human; details: 9 days exposure
Experimental: as §1
(§2) BxPC3 cells were kept in RPMI 1640 (ATCC) media supplemented with 10% FBS (Gibco); Capan-1 cells were kept in IMDM (ATCC) media containing 20% FBS (GIBCO); UWB1.298 and UWB1.298 (BRCA1+) cells were kept in 48.5% RPMI1640 (ATCC), 48.5% MEGM (Clonetics/Lonza, MEGM kit, CC-3150) and 3% FBS (GIBCO) respectively. […] Media containing the invariant concentration of compounds were refreshed every 3 days until cells were finally lysed by 30 μl/well of Promega CellTiter-Glo reagents and read on a Promega GloMax 96 reader on day 10 (9 days exposure). […]

[6] = tested on: Capan-1 (BRCA2-) and BxPC3 (BRCA2+) cells; assay: Luminescent cell viability assay, BRCA2-deficient versus proficient cells; format: cell-based, Human; details: 9 days exposure
Experimental: as §1, §2

Row | SMILES | IC50 (RAD52 [1]) [µM] | IC50 (RAD52 [2]) [µM] | preferential inhibition of BRCA1/2-deficient cell lines (summary) [3] | effect on survival of BRCA1-deficient MDA-MB-436 cells versus MDA-MB-436 (BRCA1+) [4] | effect on growth of BRCA1-deficient UWB1.289 cells versus UWB1.289 (+BRCA1) [5] | effect on growth of BRCA2-deficient Capan-1 cells versus BxPC3 [6]
1 | Cc1c(C(=O)Nc2ccc(S(=O)(=O)N(C)C3CCN(C)CC3)cc2)oc2c(Cl)cccc12 [D-A21, 7-chloro-3-methyl-N-(4-(N-methyl-N-(1-methylpiperidin-4-yl)sulfamoyl)phenyl) benzofuran-2-carboxamide] | 16.2 ± 0.42 | 9.8 |  |  |  | 
2 | Cc1ccc(-c2nc(C(=O)NCCCN3CCOCC3)cc3c2[nH]c2ccccc23)cc1 [D-C19, N-(3-morpholinopropyl)-1-(p-tolyl)-9H-pyrid[3,4-b]indole-3-carboxamide] | 4.3 ± 0.35 | 2 |  |  |  | 
3 | Cc1ccc(C(=O)c2oc3ccc(Cl)cc3c2NC(=O)CN2CCN(C)CC2)cc1 [D-C17, N-(5-chloro-2-(4-methylbenzoyl)benzofuran-3-yl)-2-(4-methylpiperazin-1-yl)acetamide] | 17.6 ± 0.78 | 6 |  |  |  | 
4 | Cn1nc(-c2ccc(Cl)cc2)c2cc(C(=O)NCCCN3CCCCCC3)sc21 [D-I11, N-(3-(azepan-1-yl)propyl)-3-(4-chlorophenyl)-1-methyl-1H-thieno[2,3-c]pyrazole-5-carboxamide] | 6.7 ± 0.78 | 4.1 |  |  |  | 
5 | COc1ccc(OC)c(Nc2nc(NCCO)c3ccccc3n2)c1 [D-I05, 2-((2-((2,5-dimethoxyphenyl)amino)quinazolin-4-yl)amino)ethan-1-ol] | 8.8 ± 0.42 | 4.3 | preferentially inhibited at least two BRCA1/2-deficient cell lines |  |  | 
6 | Cn1nc(-c2ccc(Cl)cc2)c2cc(C(=O)NCCCN3CCCC3)sc21 [D-I19, 3-(4-chlorophenyl)-1-methyl-N-(3-(pyrrolidin-1-yl)propyl)-1H-thieno[2,3-c]pyrazole-5-carboxamide] | 4.1 ± 0.14 | 3.5 |  |  |  | 
7 | CCN(CC)CCCN(Cc1cc2cc3c(cc2[nH]c1=O)OCO3)C(=S)NCCCN(C)C [D-A13, 1-(3-(diethylamino)propyl)-3-(3-(dimethylamino)propyl)-1-((6-oxo-5,6-dihydro-[1,3]dioxolo[4,5-g]quinolin-7-yl)methyl)thiourea] | 13.6 ± 0.64 | 5.2 |  |  |  | 
8 | CCCCN(CC)CCCNC(=S)Nc1ccc2nc(N3CCN(C)CC3)cc(C)c2c1 [D-G09, 1-(3-(butyl(ethyl)amino)propyl)-3-(4-methyl-2-(4-methylpiperazin-1-yl)quinolin-6-yl)thiourea] | 14.8 ± 2.47 | 2 |  | showed an inhibitory effect | showed an inhibitory effect | showed an inhibitory effect
9 | COc1ccc(-c2nc(C(=O)NCCCN3CCOCC3)cc3c2[nH]c2ccccc23)cc1OC [D-A19, 1-(3,4-dimethoxyphenyl)-N-(3-morpholinopropyl)-9H-pyrido[3,4-b]indole-3-carboxamide] | 7.2 ± 0.28 | 4.8 |  |  |  | 
10 | CN1CCN(CCCNC(=O)c2cc3c(-c4ccc(Cl)cc4)nn(C)c3s2)CC1 [D-I07, 3-(4-chlorophenyl)-1-methyl-N-(3-(4-methylpiperazin-1-yl)propyl)-1H-thieno[2,3-c]pyrazole-5-carboxamide] | 2.7 ± 0.35 | 2 |  |  |  | 
11 | COc1ccccc1Nc1nc(NCCCO)c2ccccc2n1 [D-K17, 3-((2-((2-methoxyphenyl)amino)quina-zolin-4-yl)amino)propan-1-ol] | 4.8 ± 0.85 | 2.9 | preferentially inhibited at least two BRCA1/2-deficient cell lines |  |  | 
12 | CCCCN(CC)CCNC(=O)c1cc2c(-c3ccc(Cl)cc3)nn(C)c2s1 [D-I09, N-(2-(butyl(ethyl)amino)ethyl)-3-(4-chlorophenyl)-1-methyl-1H-thieno[2,3-c]pyrazole-5-carboxamide] | 10.6 ± 1.4 | 6.8 |  |  |  | 
13 | Cc1cc(N2CCN(C)CC2)nc2ccc(NC(=S)NCCCN3CCN(C)CC3)cc12 [D-I01, 1-(4-methyl-2-(4-methylpiperazin-1-yl)quinolin-6-yl)-3-(3-(4-methylpiperazin-1-yl)propyl)thiourea] | 15.4 ± 0.57 | 3.6 |  |  |  | 
14 | CCCN(CCC)CCCNC(=S)Nc1ccc2nc(N3CCN(C)CC3)cc(C)c2c1 [D-G11, 1-(3-(dipropylamino)propyl)-3-(4-methyl-2-(4-methylpiperazin-1-yl)quinolin-6-yl)thiourea] | 8.9 ± 1.6 | 6 |  |  | showed activity | showed activity
15 | CCN1CCN(CCCNC(=S)Nc2ccc3nc(N(C)CCN)cc(C)c3c2)CC1 [D-E05, 1-(2-((2-aminoethyl)(methyl)amino)-4-methylquinolin-6-yl)-3-(3-(4-ethylpiperazin-1-yl)propyl)thiourea] | 11.3 ± 0.35 | 1.7 |  |  |  | 
